Assay results: patent publication EP1064284B1, “HYPNOTIC BETA-CARBOLINE DERIVATIVES, PROCESS FOR THEIR PREPARATION AND THEIR USE AS MEDICINAL PRODUCTS” (priority 1998, dated 1999)
“Also recorded” adds a separate entry of the source. Like-named read-outs stand apart in the source and are kept apart here.

How the values were obtained:
[1] = Stability in acidic medium (hydrolysis of cycle A in pH buffers, HPLC); assay type: physicochemical; settings: for Hydrolysis rate (%) pH=1: pH=1 buffer; for Hydrolysis rate (%) pH=1 / Hydrolysis rate (%) pH=2 / Hydrolysis rate (%) pH=3 / Hydrolysis rate (%) pH=7 (reference): 30 µM in 5 ml, stirred 15 minutes at 37°C; for Hydrolysis rate (%) pH=2: pH=2 buffer; for Hydrolysis rate (%) pH=3: pH=3 buffer; for Hydrolysis rate (%) pH=7 (reference): pH=7 (reference) buffer
Protocol: In order to study the influence of R8 group on the stability of cycle A when comparing compounds EXAMPLE A and EXAMPLE B (R8 = hydrogen atom) to compounds of Example 1, Example 4, Example 7, Example 8 and Example 11, 30 µM of each of these compounds were dissolved into 5 ml of pH=1 or pH=2 or pH=3 or pH=7 (reference) buffer. Solutions were stirred for 15 minutes at 37°C. Subsequent measurements of compounds amounts non hydrolyzed were measured using a high performance liquid chromatography method. [drawing 18] Table I :
Compounds n°1, 4, 7, 8 and 11 are quite stable from pH=2, since less than 27 per cent of these compounds are hydrolysed at pH≥2.

[2] = Absolute oral bioavailability (oral/IV) in Beagle dogs; assay type: in vivo
[3] = test system: Beagle dogs; test: Hypnotic activity: effects on wakefulness / sleep states in Beagle dogs (EEG/EMG/EOG polygraph); assay type: in vivo; settings: for Mean (± S.D.) duration of stages in 8 dogs (minutes) REM / Mean (± S.D.) latencies after administration (minutes) REM / Mean (± S.D.) duration of stages in 8 dogs (minutes) Drowsy / Mean (± S.D.) duration of stages in 8 dogs (minutes) SWS / Mean (± S.D.) duration of stages in 8 dogs (minutes) Sleep / Mean (± S.D.) duration of stages in 8 dogs (minutes) Wake / Mean (± S.D.) latencies after administration (minutes) Drowsy / Mean (± S.D.) latencies after administration (minutes) SWS: 120 minutes observation; for hypnotic effect in Beagle dogs (in words): oral
Protocol: Beagle dogs are kept in a metal cage, connected to 2 Schwartzer ED 24 Polygraph equipped with BRAINLAB® software, through a flexible cable. Test and control products are administered via the oral or intravenous routes by means of gastric tubes. Records are scored in 30 seconds epochs for active wake, drowsy, slow wave sleep (light sleep + deep sleep) and REM sleep. These criteria are according to SHELTON et al.( in SHELTON J., NISHINO S., VAUGHT J., DEMENT W.C. and MIGNOT E. Comparative effects of modafinil and amphetamine on daytime sleepiness and cataplexy of narcoleptic dogs. Sleep 19(1); 29-38, 1996.), based upon frequency and amplitude patterns of EEG cortical tracing (fronto-frontal), EMG (upper neck muscles) and EOG (bilateral). Behaviour is also continuously monitored for each observation period of 120 minutes. Prior acclimatisation of the dogs take 5 days; and, to mimic similar stress caused by gastric tubing, a mixture water/PEG (50/50; V/V) was administered orally together with intravenous boluses. • Wake : includes all episodes with low voltage mixed frequency tracing in which the EMG is not inhibited. […] Synchronous waves at 4 - 7 Hz and 50 - 100 µV appear on a background of low voltage fast-wave activity. […] EEG patterns are of higher amplitude than in the previous stage and sleep spindles ( 10 - 14 Hz) and / or K complexes must be present in light sleep, as EOG show slow eye movements or no movement. Deep sleep is scored when slow delta waves (< 4 Hz) constitute 20 p. cent of an epoch or more during deep sleep. • REM : rapid eye movement sleep is scored when dogs lay down, eyes closed with intermittent apparent fast muscle twitches. A low voltage mixed frequency EEG tracing is observed together with rapid eye movements and a drop in EMG activity.
Repartition and duration of wakefulness / sleep states in Beagle dogs have been measured after oral (and intravenous route for compoundof EXAMPLE 1) administrations of Placebo (vehicle = 10 ml of mixture ethanol / PEG 400 / water; 10 / 40 /50; V/V/V) compounds of Example 1, Example 4 and Example 7.
Results are presented in Tables II and III as Durations and Latencies of each stage.

[4] = dog, in vivo, Beagle dogs, fasting conditions, oral relative to intravenous route, read-out: Absolute bioavailability oral/IV in Beagle dogs (fasting conditions) 1 < gastric pH < 2

Row | Compound | Hydrolysis rate (%) pH=1 [1] [%] | Hydrolysis rate (%) pH=2 [1] [%] | Hydrolysis rate (%) pH=3 [1] [%] | Hydrolysis rate (%) pH=7 (reference) [1] [%] | per cent of compounds hydrolysed at pH≥2 [1] | bioavailability ([2]; beagle, dog, in vivo) [%] | hypnotic effect in Beagle dogs (in words) [3] | further results
1 | COc1ccc2[nH]c3c(c2c1)CCN1C(=O)CCC=C31 [EXAMPLE A, reference compound] | 100 | 100 | 100 | 0 | – | – | – | hydrolysis between pH=1 and pH=3 (in words) [1]: totally hydrolyzed; bioavailability [2, 4]: < 1%
2 | COc1ccc2[nH]c3c(c2c1)CCN1C(=O)CCCC31 (stereo not shown) [EXAMPLE B, reference compound] | 95 | 95 | 90 | 0 | – | – | – | hydrolysis between pH=1 and pH=3 (in words) [1]: totally hydrolyzed; Absolute bioavailability oral/IV in Beagle dogs (fasting conditions) 1 < gastric pH < 2 ([2]; Beagle dogs, fasting conditions, oral relative to intravenous route): <5%; bioavailability [2, 4]: < 5%
3 | CCC1=C2c3[nH]c4ccc(OC)cc4c3CCN2C(=O)CC1 [Example 1, 9-methoxy-1-ethyl-2,3,4,6,7,12-hexahydroindolo [2,3-a] quinolizin-4-one] | 79.5 | 14.5 | 8.7 | 0 | less than 27 per cent | > 35 | significant hypnotic effect; also recorded: potent hypnotic activity | Absolute bioavailability oral/IV in Beagle dogs (fasting conditions) 1 < gastric pH < 2 ([2]; beagle, dog, in vivo): >35%; Mean (± S.D.) duration of stages in 8 dogs (minutes) REM ([3]; 2.5 µmol/Kg IV): 3.8 (3.9) minutes; Mean (± S.D.) latencies after administration (minutes) REM ([3]; 2.5 µmol/Kg IV): 79.9 (25.4) minutes; Mean (± S.D.) duration of stages in 8 dogs (minutes) REM ([3]; 2.5 µmol/Kg oral): 3.3 (3.4) minutes; Mean (± S.D.) latencies after administration (minutes) REM ([3]; 2.5 µmol/Kg oral): 82.9 (32.8) minutes; Mean (± S.D.) duration of stages in 8 dogs (minutes) REM ([3]; 5 µmol/Kg oral, Table II): 3.1 (3.7) minutes; Mean (± S.D.) latencies after administration (minutes) REM ([3]; 5 µmol/Kg oral, Table II): 79.3 (33.3) minutes; Mean (± S.D.) duration of stages in 8 dogs (minutes) REM ([3]; 10 µmol/Kg oral, Table II): 2.4 (3.5) minutes; Mean (± S.D.) latencies after administration (minutes) REM ([3]; 10 µmol/Kg oral, Table II): 101.9 (27.3) minutes
4 | COc1ccc2[nH]c3c(c2c1)CCN1C(=O)CCC(c2ccccc2)=C31 [Example 4, 9-methoxy-1-phenyl-2,3,4,6,7,12-hexahydroindolo[2,3-a] quinolizin-4-one] | 0 | 0 | 0 | 0 | less than 27 per cent | > 20 | significant hypnotic effect; also recorded: potent hypnotic activity | Absolute bioavailability oral/IV in Beagle dogs (fasting conditions) 1 < gastric pH < 2 ([2]; beagle, dog, in vivo): >20%; Mean (± S.D.) duration of stages in 8 dogs (minutes) Drowsy ([3]; 10 µmol/Kg oral, Table III): 10.4 (3.9) minutes; Mean (± S.D.) duration of stages in 8 dogs (minutes) REM ([3]; 10 µmol/Kg oral, Table III): 4.4 (4.5) minutes; Mean (± S.D.) duration of stages in 8 dogs (minutes) SWS ([3]; 10 µmol/Kg oral, Table III): 31.5 (17.6) minutes; Mean (± S.D.) duration of stages in 8 dogs (minutes) Sleep ([3]; 10 µmol/Kg oral, Table III): 46.3 (21.3) minutes; Mean (± S.D.) duration of stages in 8 dogs (minutes) Wake ([3]; 10 µmol/Kg oral, Table III): 73.8 (21.3) minutes; Mean (± S.D.) latencies after administration (minutes) Drowsy ([3]; 10 µmol/Kg oral, Table III): 50.4 (19.8) minutes; Mean (± S.D.) latencies after administration (minutes) REM ([3]; 10 µmol/Kg oral, Table III): 93.1 (26.3) minutes; Mean (± S.D.) latencies after administration (minutes) SWS ([3]; 10 µmol/Kg oral, Table III): 58.1 (27.0) minutes
5 | CCC1=C2c3[nH]c4ccc(OC)cc4c3CCN2C(=S)CC1 [Example 7, 9-methoxy-1-ethyl-2,3,4,6,7,12-hexahydroindolo[2,3-a] quinolizine-4-thione] | 17.0 | 13.0 | 5.4 | 0 | less than 27 per cent | – | significant hypnotic effect; also recorded: potent hypnotic activity | Mean (± S.D.) duration of stages in 8 dogs (minutes) Drowsy ([3]; 5.0 µmol/Kg oral, Table III): 13.0 (8.6) minutes; Mean (± S.D.) duration of stages in 8 dogs (minutes) REM ([3]; 5.0 µmol/Kg oral, Table III): 4.4 (6.1) minutes; Mean (± S.D.) duration of stages in 8 dogs (minutes) SWS ([3]; 5.0 µmol/Kg oral, Table III): 18.9 (14.7) minutes; Mean (± S.D.) duration of stages in 8 dogs (minutes) Sleep ([3]; 5.0 µmol/Kg oral, Table III): 35.1 (25.8) minutes; Mean (± S.D.) duration of stages in 8 dogs (minutes) Wake ([3]; 5.0 µmol/Kg oral, Table III): 83.7 (25.1) minutes; Mean (± S.D.) latencies after administration (minutes) Drowsy ([3]; 5.0 µmol/Kg oral, Table III): 59.0 (20.0) minutes; Mean (± S.D.) latencies after administration (minutes) REM ([3]; 5.0 µmol/Kg oral, Table III): 91.1 (28.1) minutes; Mean (± S.D.) latencies after administration (minutes) SWS ([3]; 5.0 µmol/Kg oral, Table III): 74.1 (26.3) minutes
6 | CCC1CCC(=O)N2CCc3c([nH]c4ccc(OC)cc34)C12 (stereo not shown) [Example 8, 9-methoxy-1-ethyl-1,2,3,4,6,7,12,12b-octahydroindolo [2,3-a] quinolizin-4-one] | 0 | 0 | 0 | 0 | less than 27 per cent | 100 | – | –
7 | COc1ccc2[nH]c3c(c2c1)CCN1C(=S)CCC(c2ccccc2)=C31 [Example 11, 9-methoxy-1-phenyl-2,3,4,6,7,12-hexahydroindolo [2,3-a] [beta]quinolizin 4-thione] | 26.0 | 27.0 | 30.0 | 0 | less than 27 per cent | – | – | –
